Data on four compounds can be found in ChEMBL document CHEMBL3046264, “Juvenile hormone activity of ethyl 4-(2-aryloxyhexyloxy)benzoates with precocious metamorphosis-inducing activity” (Biosci Biotechnol Biochem, 2007).

Active and inactive are the calls of the source. No cut-off for these calls is given here.

The subject of experiment [1] is Bombyx mori. The experiment in a line: Induction of precocious metamorphosis in allatectomized fourth-instar larvae of Bombyx mori Shunei x Shougetsu assessed as juvenile hormone activity at 10 to 40 ug applied topically to dorsal abdomen of larvae. The format is functional, organism-based.
Experiment [2] relates to Bombyx mori. The experiment is described as follows: Induction of precocious metamorphosis in allatectomized fourth-instar larvae of Bombyx mori Shunei x Shougetsu assessed as juvenile hormone activity at 1 ug applied topically to dorsal abdomen of larvae. The format is functional, organism-based.

On to `CCCCC(COc1ccc(C(=O)OCC)cc1)Oc1ccccc1` (stereo unspecified), for which the outcome in experiment [1] was Active. The outcome in experiment [2] was inactive.
As for `CCOC(=O)c1ccc(OCC(CC)OC(=O)C(C)(C)C)cc1` (stereo unspecified), the outcome in experiment [2] was Active.
`COC(C)(C)CCC[C@H](C)C/C=C/C(C)=C/C(=O)OC(C)C`: in experiment [2], the outcome was Active.
Consider `CCCCC(COc1ccc(C(=O)OCC)cc1)Oc1ccc(C)nc1` (stereo unspecified), for which the result in experiment [1] was Active. Also, the outcome in experiment [2] was inactive.
